The values below come from US20250179113A1, “STEROID COMPOUND FOR TREATING CENTRAL NERVOUS SYSTEM DISEASE, METHOD FOR PREPARING SAME, AND USE AND PHARMACEUTICAL COMPOSITION THEREOF” (HUNAN KYF PHARMACEUTICAL CO., LTD., priority 2022, published 2025).

The test system of experiment [1] is GABAA receptor (primary hippocampal neuronal cells). Kind of experiment: Whole-cell patch clamp of GABA receptor currents in primary hippocampal neuronal cells. The note with it: average. It is filed as cell-based, SD suckling mice.
Experiment [2] has as its system mouse model of acute depression. Kind of experiment: Tail-suspension test, mouse model of acute depression. It is filed as in vivo, ICR mice. As to conditions: 3 days; for Average Duration of Immobile State (Mean ± Standard Deviation), female: female ICR mice, model control 170.57 ± 28.43; for Average Duration of Immobile State (Mean ± Standard Deviation), female / Average Duration of Immobile State (Mean ± Standard Deviation), male: 26.0 mg/kg intraperitoneal, tested 24 h after administration, last 4 of 6 min, n = 5, 26 mg/kg; for Average Duration of Immobile State (Mean ± Standard Deviation), male: male ICR mice, model control 151.23 ± 35.02. The method, then:
The experimental animals were administered drugs according to the grouping after 3 days of adaptive feeding. The experimental groups included the model group, the compound TM1 group, and the compound TM2 group. For each group of compounds to be tested, edible oil was used as the vehicle, and the administration route for all animals was intraperitoneal injection. The vehicle control group was given the same volume of edible oil by intraperitoneal injection, and the administration volume for each group was 20 mL/kg.
Brexanolone is used to treat postpartum depression. Its usage and dosage are continuous intravenous injection for 60 hours, with a dosage of 100 mg every 12 hours. At the beginning of the administration, it is necessary to gradually increase the drug use rate, and at the end of the administration, it is necessary to gradually decrease the drug use rate. Therefore, the total drug use within the treatment cycle is 450 mg. Referring to the Brexanolone administration cycle, the administration cycle was set to 3 days, with one administration in the morning every day.
The clinical dosage of Brexanolone is approximately 200 mg/d. Calculated based on an adult weight of 70 kg, the clinical dose of Brexanolone is 2.857 mg/kg/d. The equivalent dose conversion coefficient between humans and mice calculated according to body surface area is 0.0026. Taking the weight of mice as 20 g, the converted dose for mice is: 2.857 mg/kg/d×70 kg×0.0026/0.02 kg=25.999 mg/kg/d, which is counted as 26.0 mg/kg/d.
This study is for validity verification, and single-dose detection is used for the time being. The administration cycle and clinical dosage of the compounds of the present invention refer to the administration cycle and clinical dosage of Brexanolone mentioned above.
The detection indicator is the behavioral changes of mice in the last 4 minutes within 6 minutes, including the time when the immobile state first appears and the duration of the immobile state. Among them, the immobile state refers to the state in which the animal gives up active struggling and remains completely still.
Detection method: 24 hours after the administration of drugs to animals in each group, the animals in each group were placed in the laboratory for 30 minutes to 1 hour to reduce the animals' anxiety about the new environment. Install a video camera in front of the tail suspension box, set the corresponding parameters in the software, and enter the information such as the animal number and status. Take out the experimental animals, mark them with a marker pen at a position […] away from the tip of the tail, fix the tail at the marked position with medical tape. After the tails of the animals in the same group are fixed with tape, quickly suspend the mice in the same group into the tail suspension box device, turn on the behavioral software to record the behavioral situation for 6 minutes, and analyze the behavioral changes in the last 4 minutes.

Experiment [3] concerns GABAa receptor chloride ion channel of U251 cells. Briefly: MQAE chloride ion fluorescent probe test on U251 cells (GABA-activated chloride channel). It is filed as cell-based, human. As to conditions: sample 10 μM (Table 1), GABA in matrix, 1 min after addition, n = 6, vehicle control 42.543 ± 4.202.

For `CC1(O)CCC2(C)C(CCC3C2CCC2(C)C(C(=O)Cn4cc(C#N)cn4)CCC32)C1` (stereo not shown) [TM18], the “The percentage increase after calibration with GABA 15 μM as the reference, GABA 15 μM + TM 18 0.01 μM” value in experiment [1] (TM 18 0.01 μM with GABA 15 μM) is 129.85%. The “The percentage increase after calibration with GABA 15 μM as the reference, GABA 15 μM + TM 18 0.1 μM” value in experiment [1] (TM 18 0.1 μM with GABA 15 μM) stood at 288.44%. Besides, in experiment [1] (TM 18 1 μM with GABA 15 μM), the “The percentage increase after calibration with GABA 15 μM as the reference, GABA 15 μM + TM 18 1 μM” value is 108.82%. In addition, in experiment [2], the “Average Duration of Immobile State (Mean ± Standard Deviation), female” value came out at 174.02 ± 18.28 s and the “Average Duration of Immobile State (Mean ± Standard Deviation), male” value amounted to 193.80 ± 15.62 s. For the same molecule, in experiment [2] (male mice, 26.0 mg/kg i.p.), the “immobility time prolonged compared with the model control group, male animals” value is given as “about 20%”. Moreover, in experiment [3], the “Average fluorescence intensity (mean ± standard deviation)” value came to 48.621±1.006.

`CC1(O)CCC2(C)C(CCC3C2CCC2(C)C(C(=O)Cn4cc(C#N)cn4)CCC32)C1` (stereo not shown) [TM17]: in experiment [2], the “Average Duration of Immobile State (Mean ± Standard Deviation), female” value amounted to 198.88 ± 15.08 s and the “Average Duration of Immobile State (Mean ± Standard Deviation), male” value turned out to be 177.67 ± 20.05 s. Further, in experiment [3], the “Average fluorescence intensity (mean ± standard deviation)” value came to 47.499±2.240.
